Test results from publication PMC12018770, “DEAD‐Box Helicase 6 Blockade in Brain‐Derived Aβ Oligomers From Alzheimer's Disease Patients Attenuates Neurotoxicity” (MedComm, 2025).
“Also recorded” adds a separate entry of the source.

What was measured:
[1] = tested on: human‐derived Aβ oligomers; test: Co-immunoprecipitation / Western blotting of protein-Aβ oligomer interaction in AD brain extracts; format: binding; conditions: IgG isotype control
Excerpt: After rigorous data analysis with SAINTexpress, four proteins (DDX6, DSP, JUP, and HRNR) were identified as potential Aβ oligomer‐binding partners. To validate these findings, we selected DSP and DDX6 as positive controls for co‐IP analysis; tau proteins were used as negative controls. Input samples, IP, co‐IP extracts, and IgG controls were adjusted to ensure equal amounts of protein for comparison. […] The IP enrichment effect was substantial for Aβ oligomers, DDX6, DSP, and tau proteins. In the co‐IP extracts for DDX6 and DSP, Aβ oligomers were detected at approximately 55 and 30 kDa, respectively (indicated by “ [drawing 1] ”). […] Isotype control IgG was used to exclude nonspecific binding (Figure 2A).
A Co‐IP kit (Thermo Fisher Scientific; #26149, USA) was used for the assay. Antibodies (2 µg) were crosslinked to a reinforced AminoLink coupling resin (20 µL of beads) and immobilized on a Pierce spin column at room temperature. Protein extracts (1 mg) were added to the spin column and incubated overnight at 4°C with rotation. The spin column was then transferred to a new collection tube, and 60 µL of elution buffer (pH 2.8, containing tertiary amine) was added. The column was centrifuged, and the eluate was analyzed to detect the presence of the target protein.
Protein concentrations in the co‐IP extracts were measured using a bicinchoninic acid assay (#23225, Thermo Fisher Scientific, USA). For each sample, 20 µL of protein was loaded, with the following amounts of human‐derived Aβ oligomers (AD1–AD6) used: 1.8 µg, 2.0 µg, 1.9 µg, 1.6 µg, 2.0 µg, and 1.8 µg, respectively. Equivalent amounts of co‐IP extracts were loaded into the remaining lanes. A 5× loading buffer was added to the protein samples to achieve a final concentration of 1×, and the samples were incubated at 95°C for 5 min [44]. […]
B. The PVDF membrane was probed with the Aβ oligomer antibody (A11), indicating enrichment of Aβ oligomers (post-IP) with bands observed at 55 kDa and 30 kDa. Aβ oligomers were detected in the co-IP products of DDX6 (indicated by “✸”). […]

Aβ oligomers in AD brain = test: IHC colocalization with Aβ oligomers in AD brain sections; design: species or system human; conditions: AD7–AD10, n = 4; fluorescence scan over 120 µm
Excerpt: To further validate the binding interactions between Aβ oligomers and the four proteins, we performed immunohistochemistry (IHC) on brain sections from four AD patients (AD7–AD10). We analyzed the colocalization of Aβ oligomers (red) with DDX6, JUP, HRNR, and DSP (all green), as well as 4',6‐diamidino‐2‐phenylindole (DAPI)‐stained nuclei (blue). […] We also performed fluorescence intensity scanning from left to right across stained brain tissue slices (120 µm). […] The combined results from co‐IP and IHC confirm that these four proteins can bind to Aβ oligomers.
Sections were dewaxed, subjected to antigen retrieval, and blocked. They were then incubated with primary antibody (1:500) overnight at 4°C, followed by secondary antibody (1:200). Nuclei were stained with DAPI (Beyotime; C1002, Shanghai, China) for 10 min in the dark.

Aβ fibrillar plaques = test: ThT‐binding assay, fluorescence microscopy of fibrillar plaques; format: biochemical; conditions: DDX6 10 µM, Aβ42 20 µM, Aβ42 oligomers 5 µM; n = 3
[2] = tested on: human‐derived Aβ oligomers; test: AP-MS with SAINTexpress scoring of binding to human‐derived Aβ oligomers; conditions: score 0 to 1; criteria SAINT score > 0.5 and fold change ≥ 2; AD1–AD6, n = 6
Excerpt: Not all identified proteins bind to Aβ oligomers. Therefore, we used the SAINTexpress statistical method to screen for proteins most likely to interact with human‐derived Aβ oligomers. SAINTexpress assigns probability scores to factors interacting with target proteins, providing a value between 0 and 1, where higher scores indicate a greater likelihood of interaction with Aβ oligomers. Based on the analyzed results, we plotted the fold change on the x‐axis and SAINT scores on the y‐axis, with each point representing a protein. Proteins meeting the criteria of a SAINT score > 0.5 and fold change ≥ 2 were considered the most likely to bind Aβ oligomers (highlighted in red). Through rigorous analysis, we identified four proteins as binding partners (Figure 1C): DDX6 (SAINT score = 0.5783), DSP (SAINT score = 0.6608), JUP (SAINT score = 0.5846), and HRNR (SAINT score = 0.5246).
An aliquot of each peptide mixture was loaded onto a trap column (in‐house‐fabricated column packed with a reversed‐phase ReproSil‐Pur C18‐AQ resin, 150 µm × 15 cm, C18, 3 µm, 100 Å, Dr. Maisch GmbH, Germany) connected to an analytical column (EASY‐Spray column, […] × 75 µm ID, PepMap RSLC C18, 2 µm, 100 Å, Thermo Scientific, USA) using the autosampler of an EASY‐nLC 1200 HPLC system (Thermo Fisher Scientific). The peptides were eluted using a gradient (solvent A: 0.1% formic acid in water; solvent B: 80% acetonitrile/0.1% formic acid in water; Sigma, Germany) directly into a Q Exactive Hybrid Quadrupole‐Orbitrap mass spectrometer (Thermo Fisher Scientific). The gradient program was as follows: 4%–8% solvent B over 2 min, 8%–28% solvent B over 43 min, 28%–40% solvent B over 10 min, 40%–95% solvent B over 1 min, and 95% solvent B for 10 min. The following mass spectrometry parameters were used: spray voltage, 2.2 kV; capillary temperature, 270°C; MS resolution, 70,000 at 400 m/z; MS precursor m/z range, 300.0–1800.0 m/z; activation type, high‐energy collision dissociation; normalized collision energy, 28.0; activation time, […]; and data‐dependent MS/MS, top 20 most intense peptide ions selected based on the preview scan in the Orbitrap.
The raw MS files (Figure S5) were analyzed and searched against species‐specific protein databases using MaxQuant (v1.6.2.10). The following parameters were applied: maximum missed cleavages, 2; precursor ion mass tolerance, 20 ppm; and MS/MS tolerance, 20 ppm. Peptides and proteins were filtered to achieve a false discovery rate of < 1% using a target‐decoy database strategy, and only proteins with at least two unique peptides were reported. […] SAINT is a probabilistic method for scoring protein–protein interactions in AP‐MS experiments, enabling the identification of proteins most likely to interact with target proteins. […]

## DEAD‐box helicase 6 [DDX6]
[1]
  binding to Aβ oligomers by co‐IP: DDX6 and DSP were also detected in Aβ oligomer co‐IP extracts; also recorded: DDX6 was detected in the co-IP products of Aβ oligomers
Aβ oligomers in AD brain
  colocalization with Aβ oligomers: strong colocalization
Aβ fibrillar plaques
  fluorescence intensity by microscopy (in words): showed no effects on fluorescence intensity
[2]
  SAINT score: 0.5783
